Target: T1, horse heart myoglobin (Mb) (Equus caballus, UniProt P68082)
T1 construct: Lyophilized horse heart Mb, human Hb, equine heart cytochrome c were in their ferric form when dissolved in buffer; purchased Sigma M1882; host or cells: horse heart
Test: UV-Vis spectrophotometric ligand affinity study, myoglobin
Details: ferric horse heart Mb, PBS pH 7.4, Soret shift 409 to 422 nm; read-out: Kd (binding affinity to ferric Mb heme)
Procedure: UV-Vis spectrophotometric ligand affinity studies for ferric and ferrous-oxy heme proteins were performed using a Cary4000 UV-Vis spectrophotometer. These studies were performed in an aerobic environment. Lyophilized horse heart Mb, human Hb, equine heart cytochrome c were in their ferric form when dissolved in buffer. DosS GAF-A was purified in its ferric form. Ferrous-oxy forms of Mb and hemoglobin (Hb) were prepared by addition of a small aliquot of sodium dithionite to the proteins (in air) and running the protein through PD-10 columns twice to remove excess dithionite/other products. […] The protein concentration was set to ˜1 μM to obtain a desirable absorbance reading at the Soret peak region. […] For those fragments with some intrinsic absorbance in the aforementioned region, a second titration was performed with the same conditions, but without protein. […]
UV-Vis spectrophotometric ligand affinity studies for ferrous heme proteins were performed using a Cary 60 UV-Vis spectrophotometer. […] The sum of the maximal and minimal differences in absorbance was plotted for each concentration point for each ligand. […]
where Y is the observed change in absorbance, A is the maximum change in absorbance, Kd is the dissociation constant of the ligand, L is the ligand concentration and P is the protein concentration. The maximal change in absorbance, A, is obtained through nonlinear regression. […]

T1 sequence (P68082 whole entry): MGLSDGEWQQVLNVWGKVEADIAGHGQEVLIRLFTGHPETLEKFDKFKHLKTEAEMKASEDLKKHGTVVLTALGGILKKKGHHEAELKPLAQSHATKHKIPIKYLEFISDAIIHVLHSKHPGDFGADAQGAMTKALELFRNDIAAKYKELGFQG

## N#CN1CCSCC1 [HT-N1, thiomorpholine N-carbonitrile]
  Kd: 2570 ± 328 µM

Reference: US20240099997A1, “METALLOENZYME MODULATORS” (Regents of the University of Minnesota, priority 2022, published 2024)
